What was measured:
[1] = system: K+-evoked capillary hyperemia; test: In vivo two-photon imaging of K+-evoked capillary RBC flux through cranial window; parameters: species or system C57BL/6J mouse
Kir2.1 channel [2] = target: T1, Kir2.1 channel (Mus musculus, UniProt P35561); test: Patch-clamp recording of Kir2.1 currents in freshly isolated brain capillary endothelial cells (cECs); conditions: perforated patch
T1 sequence (P35561 1-428): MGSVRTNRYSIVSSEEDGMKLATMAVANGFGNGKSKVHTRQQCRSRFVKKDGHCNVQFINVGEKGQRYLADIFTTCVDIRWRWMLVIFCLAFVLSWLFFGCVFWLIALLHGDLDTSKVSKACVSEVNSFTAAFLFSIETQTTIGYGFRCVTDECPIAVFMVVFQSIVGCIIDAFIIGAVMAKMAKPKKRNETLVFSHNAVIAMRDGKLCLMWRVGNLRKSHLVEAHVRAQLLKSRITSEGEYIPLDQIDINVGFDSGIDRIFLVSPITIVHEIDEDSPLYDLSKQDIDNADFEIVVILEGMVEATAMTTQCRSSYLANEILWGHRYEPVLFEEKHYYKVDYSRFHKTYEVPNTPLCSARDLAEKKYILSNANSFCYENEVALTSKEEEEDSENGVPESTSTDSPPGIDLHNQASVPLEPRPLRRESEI

[3] = system: capillary-to-arteriole electrical signaling; test: Ex vivo capillary-parenchymal arteriole (CaPA) preparation: upstream arteriolar dilation to 10 mM K+ on capillaries; parameters: species or system C57BL/6J mouse
Source text: Ex Vivo Capillary-Parenchymal Arteriole Preparation. The capillary-parenchymal arteriole (CaPA) preparation was obtained by dissecting parenchymal arterioles arising from the M1 region of the middle cerebral artery, leaving the attached capillary bed intact, as reported recently (Longden et al, “Capillary K^+-Sensing Initiates Retrograde Hyperpolarization to Increase Local Cerebral Blood Flow,” Nat. Neurosci. 20:717-726 (2017), which is hereby incorporated by reference in its entirety). Precapillary arteriolar segments were cannulated on glass micropipettes on a Living Systems Instrumentation pressure myograph, with one end occluded by a tie. The ends of the capillaries were then sealed by the downward pressure of an overlying glass micropipette. Application of pressure (40 mmHg) to the cannulated parenchymal arteriole segment in this preparation pressurized the entire tree and induced myogenic tone in the parenchymal arteriole segment. With this preparation, 10 mM K^+ was applied onto capillaries by pressure ejection from a glass micropipette (tip diameter, ˜5 μm) attached to a Picospritzer III (Parker) at ˜5 psi for 18 s. Luminal diameter in parenchymal arterioles was acquired in one region of the arteriolar segment at 15 Hz using IonWizard 6.2 edge-detection software (IonOptix). Changes in arteriolar diameter were calculated from the average luminal diameter measured over the last 10 s of stimulation and were normalized to the maximum dilatory responses in 0 mM Ca^2+ bath solution at the end of each experiment.
Capillary Kir2.1 channels sense increases in [K^+]o caused by increased neuronal activity and initiate a hyperpolarizing signal. By virtue of strong electrical coupling between endothelial cells, retrograde hyperpolarization ascends to upstream feeding arterioles to enhance cerebral blood flow to the site of signal initiation (Longden et al, “Capillary K^+-Sensing Initiates Retrograde Hyperpolarization to Increase Local Cerebral Blood Flow,” Nat. Neurosci. 20:717-726 (2017), which is hereby incorporated by reference in its entirety). […] During this lag period, Kir2.1 currents recorded in the perforated-patch configuration declined steadily (τdecay≈12 minutes), but K^+-mediated retrograde dilatory signaling remained intact until Kir2.1 currents reached ˜50% of their maximal amplitude (FIG. 7C).

functional hyperemia = test: Whisker stimulation-induced functional hyperemia in vivo (laser Doppler flowmetry, somatosensory cortex); parameters: species or system TgNotch3^WT and TgNotch3^R169C mice; conditions: exogenous PIP2 (diC16-PIP2 systemically via femoral artery catheter), CADASIL model mice
[4] = system: capillary-to-arteriole electrical signaling; test: Ex vivo CaPA preparation from transgenic mice: arteriolar tone and dilation to capillary 10 mM K+
intracerebral arterioles = test: Luminal diameter of isolated pressurized parenchymal arterioles; parameters: species or system TgNotch3^WT and TgNotch3^R169C mice; conditions: bath soluble PIP2 10 μM; TgNotch3^WT and TgNotch3^R169C arterioles
Protocol: FIGS. 21A and 21B show typical recordings of luminal diameter of pressurized parenchymal arterioles from TgNotch3^WT (control) and TgNotch3^R169C (CADASIL) mice. NS309 and U46619 are used to test the ability of the arteriole to dilate and constrict, respectively. Bath application of soluble PIP2 at 10 μM has little effect on arteriole diameter.

Kir2.1 channel [5] = target: T1, Kir2.1 channel; test: Patch-clamp Ba2+-sensitive Kir2.1 current in cECs from transgenic mice; format: cell-based, TgNotch3^WT and TgNotch3^R169C mice; parameters: freshly isolated capillary endothelial cells from TgNotch3^WT and TgNotch3^R169C brains; endogenous in cells; host or cells: freshly isolated brain capillary endothelial cells from TgNotch3^WT and TgNotch3^R169C mice (FVB/N background); conditions: CADASIL cECs
[6] = bath-applied PGE2 1 μM or carbachol 10 μM

Compound	K+-induced increase in capillary RBC flux ([1]; carbachol 0.6 μg/kg intravascular, t=20 minutes after injection, 10 mM K+, saline controls 52±12%)	Baseline capillary RBC flux (before K+ application) ([1]; carbachol 0.6 μg/kg, over 30 minutes)	Kir2.1 current decline at X0 (12 minutes) (Kir2.1 channel [2]; carbachol 10 μM)	Time constant of exponential decay of Kir2.1 current (τdecay) (Kir2.1 channel [2]; PGE2 2 μM or carbachol 10 μM applied at t0)	Lag phase (X0) before inhibition of capillary-mediated arteriolar dilation [3, 6]	Time constant of postplateau exponential decay of K+-induced dilation (τdecay) [3, 6]	K+-induced upstream arteriolar vasodilation ([3]; bath-applied PGE2 1 μM or carbachol 10 μM, 10 mM K+ on capillaries)	Parenchymal arteriolar diameter ([3]; carbachol, FIGS. 8A-8D)	Functional hyperemia in vivo (functional hyperemia)	Upstream arteriole response to 10 mM K+ on capillaries ([4]; CaPA from endothelial specific Kir2.1^-/- (Kir channel deficient) mice, HB-EGF or soluble PIP2 present)	Arteriolar dilation in response to capillary stimulation with 10 mM K+ ([4]; TgNotch3^R169C CaPA, 1 mM 4-AP, 30 ng/mL HB-EGF bath, or exogenous PIP2 bath)	Arteriole diameter (intracerebral arterioles)	Kir2-mediated current (Kir2.1 channel [5]; exogenous soluble PIP2 10 μM (diC16-PIP2, 20 minutes pre-incubation))	Kir current (Kir2.1 channel [5]; intracellular soluble PIP2 via patch pipette (10 μM diC8-PIP2))
C[N+](C)(C)CCOC(N)=O [carbachol]	10±6%	did not change	~58%	8 min	≈ 12 minutes	≈ 13 minutes	similarly suppressed	minimally altered parenchymal arteriolar diameter						
phosphatidylinositol 4,5-bisphosphate [soluble PIP2]									restored	absence of effect	restored	little effect	increased Kir2-mediated current in cECs from CADASIL mice to values observed in control groups	counteracted the reduction in Kir current
